Earlier results in US20020004489A1, “Retinoid receptor interacting polynucleotides, polypeptides, and antibodies” (priority 1999, published 2002).

Tests used:
[1] = system: protease inhibitor-resistant viruses
[2] = system: viruses containing the K103N mutation
[3] = system: HIV
[4] = system: AZT/3TC-resistant virus
[5] = system: lamivudine-resistant isolates
[6] = deletion of 8-10 C-terminal residues, versus undeleted protein

Cc1ccccc1CNC(=O)[C@H]1N(C(=O)[C@@H](O)[C@H](Cc2ccccc2)NC(=O)c2cccc(O)c2C)CSC1(C)C [AG-1776]
in vitro activity against protease inhibitor-resistant viruses [1]: in vitro activity against protease inhibitor-resistant viruses

CC(C)c1nc(COC(N)=O)n(Cc2ccncc2)c1Sc1cc(Cl)cc(Cl)c1 [CAPRAVIRINE]
activity against K103N mutants [2]: activity against viruses containing the K103N mutation

Nc1nc(=O)n([C@@H]2CS[C@H](CO)O2)cc1F [COVIRACIL, emtricitabine]
activity in vitro relative to lamivudine (3TC) ([3]; in vitro, greater activity than lamivudine (3TC)): 3- to 10 fold

Nc1nc(=O)n([C@H]2C=C[C@@H](CO)O2)cc1F [DD4FC]
activity against AZT/3TC-resistant virus [4]: activity against AZT/3TC-resistant virus

CC[C@H]1C(=O)Nc2ccc(F)cc2N1C(=O)OC(C)C [GW-420867X]
activity against K103N mutants [2]: active against K103N mutants | activity relative to HBY097 ([3]; greater activity than HBY097): 25 fold

C[C@H](Sc1nc(N)cc(Cl)n1)c1cc2ccoc2cn1 [PNU-142721]
activity against K103N mutants [2]: active against K103N mutants | activity relative to its predecessor delavirdine ([3]; greater activity than delavirdine): 20- to 50 fold

Nc1ccn([C@H]2CO[C@@H](CO)S2)c(=O)n1 [dOTC]
activity against lamivudine-resistant isolates [5]: retains activity against a substantial proportion of lamivudine-resistant isolates

Interferon gamma
activity after deleting 8-10 amino acid residues from the carboxy terminus [6]: up to ten times higher activity
